Columns and labels:
KRAS G12D = KRAS G12D (Homo sapiens, UniProt P01116, G12D); assay: GDP-GTP exchange assay (bodipy-GDP for GppNHp, with SOS1), KRAS G12D; format: biochemical; details: bodipy-loaded KRAS G12D 2.5 nM, 4 h pre-incubation, 2 h after GppNHp/SOS1; read-out: G12D_exchange
Protocol: (§1) The inhibitor potency of the exemplified compounds was determined in a fluorescence based guanine nucleotide exchange assay, which measures the exchange of bodipy-GDP (fluorescently labeled GDP) for GppNHp (Non-hydrolyzable GTP analog) to generate the active state of KRAS in the presence of SOS1 (guanine nucleotide exchange factor). Inhibitors were serially diluted in DMSO and a volume of 0.1 μL was transferred to the wells of a black low volume 384-well plate. 5 μL/well volume of bodipy-loaded KRAS G12D diluted to 2.5 nM in assay buffer (25 mM Hepes pH 7.5, 50 mM NaCl, 10 mM MgCl2 and 0.01% Brij-35) was added to the plate and pre-incubated with inhibitor for 4 h at ambient temperature. Appropriate controls (enzyme with no inhibitor or with a G12D inhibitor) were included on the plate. The exchange was initiated by the addition of a 5 μL/well volume containing 1 mM GppNHp and 300 nM SOS1 in assay buffer. The 10 μL/well reaction concentration of the bodipy-loaded KRAS G12D, GppNHp, and SOS1 were 2.5 nM, 500 uM, and 150 nM, respectively. The reaction plates were incubated at ambient temperature for 2 h, a time estimated for complete GDP-GTP exchange in the absence of inhibitor. For the KRAS G12V mutant, similar guanine nucleotide exchange assays were used with 2.5 nM as final concentration for the bodipy loaded KRAS proteins and 3 h incubation after adding GppNHp-SOS1 mixture. A cyclic peptide described to selectively bind G12D mutant (Sakamoto et al., BBRC 484.3 (2017), 605-611) or internal compounds with confirmed binding were used as positive controls in the assay plates. Fluorescence intensities were measured on a PheraStar plate reader instrument (BMG Labtech) with excitation at 485 nm and emission at 520 nm.
(§2) Either GraphPad prism or Genedata Screener SmartFit was used to analyze the data. The IC50 values were derived by fitting the data to a four parameter logistic equation producing a sigmoidal dose-response curve with a variable Hill coefficient.
(§3) The symbol “†” indicates IC50≤100 nM, “††” indicates IC50>100 nM but ≤1 μM; and “†††” indicates IC50 is >1 μM but ≤5 μM, “††††” indicates IC50 is >5 μM but ≤10 μM. “NA” indicates IC50 not available.

KRAS G12V mutant = KRAS G12V mutant (Homo sapiens, UniProt P01116, G12V); assay: GDP-GTP exchange assay (bodipy-GDP for GppNHp, with SOS1), KRAS G12V; format: biochemical; details: bodipy-loaded KRAS G12V 2.5 nM, 3 h incubation after GppNHp-SOS1; read-out: G12V_ exchange
Sequence of KRAS G12V mutant (P01116 1-188 isoform P01116-2 G12V): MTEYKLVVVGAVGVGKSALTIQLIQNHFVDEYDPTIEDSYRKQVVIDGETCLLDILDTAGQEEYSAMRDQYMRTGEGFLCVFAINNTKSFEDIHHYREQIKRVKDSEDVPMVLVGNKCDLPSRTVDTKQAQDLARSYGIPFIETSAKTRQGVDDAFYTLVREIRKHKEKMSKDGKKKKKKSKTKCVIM
Protocol: as §1, §2, §3

KRAS G12V = assay: G12V_cell (cellular assay on KRAS G12V cells, method not named in Table 1); format: cell-based; details: cell line and readout not stated
Protocol: MIA PaCa-2 (KRAS G12C; ATCC® CRL-1420), NCI-H358 (KRAS G12C; ATCC® CRL-5807), A427 (KRAS G12D; ATCC® HTB53), HPAFII (KRAS G12D; ATCC® CRL-1997), YAPC (KRAS G12V; DSMZ ACC382), SW480 (KRAS G12V; ATCC® CRL-228) and NCI-H838 (KRAS WT; ATCC® CRL-5844) cells are cultured in RPMI 1640 media supplemented with 10% FBS (Gibco/Life Technologies). Eight hundred cells per well in RPMI 1640 media supplemented with 2% FBS are seeded into white, clear bottomed 384-well Costar tissue culture plates containing 50 nL dots of test compounds (final concentration is a 1:500 dilution, with a final concentration in 0.2% DMSO). Plates are incubated for 3 days at […], 5% CO2. At the end of the assay, 25 ul/well of CellTiter-Glo reagent (Promega) is added. Luminescence is read after 15 min. with a PHERAstar (BMG). Data are analyzed in Genedata Screener using SmartFit for IC50 values.
MIA PaCa-2 (KRAS G12C; ATCC® CRL-1420), NCI-H358 (KRAS G12C; ATCC® CRL-5807), A427 (KRAS G12D; ATCC® HTB53), HPAFII (KRAS G12D; ATCC® CRL-1997), YAPC (KRAS G12V; DSMZ ACC382), SW480 (KRAS G12V; ATCC® CRL-228) and NCI-H838 (KRAS WT; ATCC® CRL-5844) cells are purchased from ATCC and maintained in RPMI 1640 media supplemented with 10% FBS (Gibco/Life Technologies). The cells are plated at 5000 cells per well (8 uL) into Greiner 384-well low volume, flat-bottom, and tissue culture treated white plates and incubated overnight at […], 5% CO2. The next morning, test compound stock solutions are diluted in media at 3× the final concentration and 4 uL are added to the cells, with a final concentration of 0.1% of DMSO. The cells are incubated with the test compounds for 4 h (G12C and G12V) or 2 hrs (G12D) at 37° C., 5% CO2. Four uL of 4× lysis buffer with blocking reagent (Cisbio) are added to each well and plates are rotated gently (300 rpm) for 30 min. at r.t. Four uL per well of Cisbio anti Phospho-ERK ½ d2 is mixed with anti Phospho-ERK ½ Cryptate (1:1), and added to each well, incubated overnight in the dark at r.t. Plates are read on the Pherastar plate reader at 665 nm and 620 nm wavelengths. Data are analyzed in Genedata Screener using SmartFit for IC50 values.

Measured: IC50

Sequence of KRAS G12D (P01116 1-188 isoform P01116-2 G12D): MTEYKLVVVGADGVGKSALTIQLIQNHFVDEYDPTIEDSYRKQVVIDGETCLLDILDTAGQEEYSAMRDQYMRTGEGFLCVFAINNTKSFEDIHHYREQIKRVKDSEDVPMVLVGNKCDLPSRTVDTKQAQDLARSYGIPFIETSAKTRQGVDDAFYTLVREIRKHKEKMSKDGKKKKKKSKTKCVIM

C[C@H](Oc1nc2c(F)c(-c3cccc4ccc(F)cc34)c(CCC#N)cc2c2c1cc(-c1cnn(C)c1C(=O)N(C)C)n2[C@H]1[C@H]2CN[C@@H]1C2)[C@@H]1CCCN1C [Example 2, 4-(1-((1R,4R,5S)-2-Azabicyclo[2.1.1]hexan-5-yl)-8-(2-cyanoethyl)-6-fluoro-7-(7-fluoronaphthalen-1-yl)-4-((S)-1-((S)-1-methylpyrrolidin-2-yl)ethoxy)-1H-pyrrolo[3,2-c]quinolin-2-yl)-N,N,1-trimethyl-1H-pyrazole-5-carboxamide]
≤ 100 nM: all assays above

C[C@H](Oc1nc2c(F)c(-c3cccc(Cl)c3Cl)c(CCC#N)cc2c2c1cc([C@H]1C[C@H](Oc3ncccc3F)CN1C(=O)C1CC1)n2[C@H]1[C@H]2CN[C@@H]1C2)[C@@H]1CCCN1C [Example 9, 3-(1-((1R,4R,5S)-2-Azabicyclo[2.1.1]hexan-5-yl)-2-((2R,4S)-1-(cyclopropanecarbonyl)-4-((3-fluoropyridin-2-yl)oxy)pyrrolidin-2-yl)-7-(2,3-dichlorophenyl)-6-fluoro-4-((S)-1-((S)-1-methylpyrrolidin-2-yl)ethoxy)-1H-pyrrolo[3,2-c]quinolin-8-yl)propanenitrile]
≤ 100 nM: all assays above

CC(=O)N1CCC[C@@H]1c1cc2c(O[C@@H](C)[C@@H]3CCCN3C)nc3c(F)c(-c4cccc5ncc(F)cc45)c(CCC#N)cc3c2n1[C@H]1[C@H]2CN[C@@H]1C2 [Example 5, 3-(2-((R)-1-Acetylpyrrolidin-2-yl)-1-((1R,4R,5S)-2-azabicyclo[2.1.1]hexan-5-yl)-6-fluoro-7-(3-fluoroquinolin-5-yl)-4-((S)-1-((S)-1-methylpyrrolidin-2-yl)ethoxy)-1H-pyrrolo[3,2-c]quinolin-8-yl)propanenitrile]
≤ 100 nM: all assays above

CC(=O)N1CCC[C@@H]1c1c(Cl)c2c(O[C@@H](C)[C@@H]3CCCN3C)nc3c(F)c(-c4cccc(Cl)c4Cl)c(CCC#N)cc3c2n1[C@H]1[C@H]2CN[C@@H]1C2 [Example 3, 3-(2-((R)-1-Acetylpyrrolidin-2-yl)-1-((1R,4R,5S)-2-azabicyclo[2.1.1]hexan-5-yl)-3-chloro-7-(2,3-dichlorophenyl)-6-fluoro-4-((S)-1-((S)-1-methylpyrrolidin-2-yl)ethoxy)-1H-pyrrolo[3,2-c]quinolin-8-yl)propanenitrile]
≤ 100 nM: all assays above

CC(=O)N1CCC[C@@H]1c1cc2c(O[C@@H](C)[C@@H]3CCCN3C)nc3c(F)c(-c4cccc5c4C(C#N)CCC5)c(C)cc3c2n1[C@H]1[C@H]2CN[C@@H]1C2 (stereo partly drawn) [Example 4, 8-(2-((R)-1-Acetylpyrrolidin-2-yl)-1-((1R,4R,5S)-2-azabicyclo[2.1.1]hexan-5-yl)-6-fluoro-8-methyl-4-((S)-1-((S)-1-methylpyrrolidin-2-yl)ethoxy)-1H-pyrrolo[3,2-c]quinolin-7-yl)-1,2,3,4-tetrahydronaphthalene-1-carbonitrile]
≤ 100 nM: all assays above

C[C@H](Oc1nc2c(F)c(-c3cccc(Cl)c3Cl)c(CCC#N)cc2c2c1cc([C@H]1C[C@H](OC(F)F)CN1C(=O)C1CC1)n2[C@H]1[C@H]2CN[C@@H]1C2)[C@@H]1CCCN1C [Example 8, 3-(1-((1R,4R,5S)-2-Azabicyclo[2.1.1]hexan-5-yl)-2-((2R,4S)-1-(cyclopropanecarbonyl)-4-(difluoromethoxy)pyrrolidin-2-yl)-7-(2,3-dichlorophenyl)-6-fluoro-4-((S)-1-((S)-1-methylpyrrolidin-2-yl)ethoxy)-1H-pyrrolo[3,2-c]quinolin-8-yl)propanenitrile]
≤ 100 nM: all assays above

COC(=O)N1C[C@@H](Oc2ccccn2)C[C@@H]1c1cc2c(O[C@@H](C)[C@@H]3CCCN3C)nc3c(F)c(-c4cccc(Cl)c4Cl)c(CCC#N)cc3c2n1[C@H]1[C@H]2CN[C@@H]1C2 [Example 6, Methyl (2R,4S)-2-(1-((1R,4R,5S)-2-azabicyclo[2.1.1]hexan-5-yl)-8-(2-cyanoethyl)-7-(2,3-dichlorophenyl)-6-fluoro-4-((S)-1-((S)-1-methylpyrrolidin-2-yl)ethoxy)-1H-pyrrolo[3,2-c]quinolin-2-yl)-4-(pyridin-2-yloxy)pyrrolidine-1-carboxylate]
≤ 100 nM: all assays above

CC(=O)N1CCC[C@@H]1c1cc2c(O[C@@H](C)[C@@H]3CCCN3C)nc3c(F)c(-c4cccc(Cl)c4Cl)c(CCC#N)cc3c2n1[C@H]1[C@H]2CN[C@@H]1C2 [Example 1, 3-(2-((R)-1-Acetylpyrrolidin-2-yl)-1-((1R,4R,5S)-2-azabicyclo[2.1.1]hexan-5-yl)-7-(2,3-dichlorophenyl)-6-fluoro-4-((S)-1-((S)-1-methylpyrrolidin-2-yl)ethoxy)-1H-pyrrolo[3,2-c]quinolin-8-yl)propanenitrile]
≤ 100 nM: all assays above

CC(=O)N1[C@@H](c2cc3c(O[C@@H](C)[C@@H]4CCCN4C)nc4c(F)c(-c5cccc6c5C(C#N)CCC6)c(C)cc4c3n2[C@H]2[C@H]3CN[C@@H]2C3)C[C@@H]2C[C@@H]21 (stereo partly drawn) [Example 7, 8-(2-((1S,3R,5S)-2-Acetyl-2-azabicyclo[3.1.0]hexan-3-yl)-1-((1R,4R,5S)-2-azabicyclo[2.1.1]hexan-5-yl)-6-fluoro-8-methyl-4-((S)-1-((S)-1-methylpyrrolidin-2-yl)ethoxy)-1H-pyrrolo[3,2-c]quinolin-7-yl)-1,2,3,4-tetrahydronaphthalene-1-carbonitrile]
≤ 100 nM: all assays above

C[C@H](Oc1nc2c(F)c(-c3cccc(Cl)c3Cl)c(CCC#N)cc2c2c1cc([C@H]1C[C@H](F)CN1C(=O)C1CC1)n2[C@H]1[C@H]2CN[C@@H]1C2)[C@@H]1CCCN1C [Example 10, 3-(1-((1R,4R,5S)-2-Azabicyclo[2.1.1]hexan-5-yl)-2-((2R,4S)-1-(cyclopropanecarbonyl)-4-fluoropyrrolidin-2-yl)-7-(2,3-dichlorophenyl)-6-fluoro-4-((S)-1-((S)-1-methylpyrrolidin-2-yl)ethoxy)-1H-pyrrolo[3,2-c]quinolin-8-yl)propanenitrile]
≤ 100 nM: all assays above
